The target in experiment [1] is T1, peripheral benzodiazepine receptors (Rattus norvegicus, UniProt P16257).
T1 construct: from tissue; Rat heart membranes according to own knowledge of the cited Le Fur et al. method
Description: benzodiazepine receptor binding (test of LeFur et al.), peripheral. How it is done:
Compounds of the invention were assessed for their binding to the benzodiazepine receptor by the test of Speth et al. [Life Sci. 24, 351 (1979)] for central benzodiazepine receptors and LeFur et al. [Life Sci. 33, 449 (1983)] for peripheral receptors. The compounds were tested first at 1.00E-09, 1.0E-07 and 1.0E-05 M in single determination. […] The specific ligand binding to the receptor is defined as the difference between the total binding and the nonspecific binding determined in the presence of an excess of unlabelled ligand. In each experiment, the respective reference compound was tested concurrently with the test compounds in order to assess the assay suitability. It was tested at several concentrations (for IC50 value determination), and the data were compared with historical values. The assay was rendered valid if suitability criteria were met.
However, the invention is not limited to the compounds found in the Tables.

Experiment [2] is described as follows: maze test, which tests anxiety. The experiment is classed as in vivo. Particulars: 10 mg/kg. The method, then:
The compounds of Example 1d (also found in Example 6d), Example 22d, and Example 35d, were also tested in vivo using the maze test, which tests anxiety [Montgomery, J. Comparative and Physiological Psychology 48, 254-60 (1955); Handley et al., Naunyn-Schmiedeberg's Archives of Pharmacology 327, 1-5 (1984); Lister, Psychopharm. 92, 180-85 (1987); Pellow et al., J. Neuroscience Methods 14, 149-67 (1985); Rodgers et al., Ethology and Psychopharmacology, S. J. Cooper and C. A. Hendrie (eds), John Wiley & Sons, Ltd., 9-43 (1994); and Trullas et al., Psychopharm. 111, 323-31 (1993)]. The results of the maze test for these compounds are found in FIGS. 1a, 1b, 2a, 2b, 3a, and 3b. FIGS. 1a, 2a, and 3a are graphs of the Number of Entries in Open Arms vs. mg/kg (dose of administered compound). FIGS. 1b, 2b, and 3b plot the Percent of Time Spent in Open Arms vs. mg/kg (dose of administered compound). […] The results of the maze test are accepted by persons of skill in the art as predictive of therapeutic utility.

T1 sequence (P16257 whole entry): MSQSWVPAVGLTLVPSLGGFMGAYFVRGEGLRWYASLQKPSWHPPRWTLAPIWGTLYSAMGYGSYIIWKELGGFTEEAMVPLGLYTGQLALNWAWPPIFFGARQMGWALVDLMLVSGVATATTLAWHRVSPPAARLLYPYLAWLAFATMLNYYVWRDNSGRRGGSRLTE

In turn, `Cc1ccc(-c2nc3ccc(C)cn3c2CC(=O)c2cccn2C)cc1` registered a half-maximal inhibitory concentration (IC50) in experiment [1] (Table 1a) of over 10000 nM.

`Cc1ccc(-c2nc3ccc(C)cn3c2CC(=O)c2c(C)nc3ccccn23)cc1` displayed an IC50 in experiment [1] (Table 1a) of 1600 nM. Same read-out and setting: with `Cc1ccc(-c2nc3ccc(C)cn3c2CC(=O)c2cc(C)n[nH]2)cc1` the figure was over 10000 nM; with `Cc1ccc(-c2nc3ccc(C)cn3c2CC(=O)c2cc3ccccc3n2C)cc1`, 540 nM.

The compound `Cc1ccc(-c2nc3ccc(C)cn3c2CC(=O)c2cnn3c(C)cc(C)nc23)cc1` registered an IC50 in experiment [1] (Table 1a) of over 10000 nM. `COc1ccc(-c2nc3ccc(C)cn3c2CC(=O)c2cccn2C)cc1` showed an IC50 in experiment [1] (Table 1b) of 1700 nM. Regarding `COc1ccc(-c2nc3ccc(C)cn3c2CC(=O)c2cnn3c(C)cc(C)nc23)cc1`, the IC50 in experiment [1] (Table 1b) is over 10000 nM. With `Cc1ccc(-c2nc3ccc(C)cn3c2C2CCN(C)C2=O)cc1` (stereo not shown), the IC50 in experiment [1] (Table 2) is over 10000 nM. Take `Cc1ccc(-c2nc3ccc(C)cn3c2CC(=O)c2cccs2)cc1` [Example 1d, 2-(6-Methyl-2-p-tolyl-imidazo[1,2-a]pyridin-3-yl)-1-thiophen-2-yl-ethanone]: the “maze test activity (Number of Entries in Open Arms, Percent of Time Spent in Open Arms)” value in experiment [2] is on record as “statistically significant activity”. Turning to `COc1ccsc1C(=O)Cc1c(-c2ccc(C)cc2)nc2ccc(C)cn12` [Example 22D, 1-(3-Methoxy-thiophen-2-yl)-2-(6-methyl-2-p-tolyl-imidazo[1,2-a]pyridin-3-yl)-ethanone], the “maze test activity (Number of Entries in Open Arms, Percent of Time Spent in Open Arms)” value in experiment [2] is on record as “statistically significant activity”.

For the origin of these results see US7723324B2 (priority 2003, dated 2010).
